Each block holds one molecule with its values, some of them ahead of it.
Legend:
Format in all cases: physicochemical
[1] = Partition of enalapril between ethyl acetate and water against temperature, HPLC (Example 11); details: ethyl acetate solution + H2O 10% by volume
Procedure: (§1) The HPLC analysis was carried out under the following conditions:
According to Example 1, an ethyl acetate solution of N-(1(S)-ethoxycarbonyl-3-phenylpropyl)-L-alanyl-L-proline was prepared. To 50 ml of the ethyl acetate solution was added H2O in an amount of 10% by volume (based on ethyl acetate). The mixture was stirred for 10 minutes at each temperature shown in Table 6, and allowed to stand still for 10 minutes and, then, separated. The amount of N-(1(S)-ethoxycarbonyl-3-phenylpropyl)-L-alanyl-L-proline in the water-saturated organic phase was analyzed with HPLC, and the relation between the temperature and the partition ratio to the organic phase was investigated.

[2] = Formation of diketopiperazine derivative (3) from enalapril in ethyl acetate of given water content or in water, 30° C., 6 hours, HPLC (Example 8); details: about 13% by weight solution
Procedure: as §1
According to Example 1, an ethyl acetate solution of N-(1(S)-ethoxycarbonyl-3-phenylpropyl)-L-alanyl-L-proline was prepared. 129.40 Grams of this organic phase was washed twice with 30 ml of saturated brine, and dehydrated with magnesium sulfate. The solvent was concentrated and, then, the concentrated liquid was dried under reduced pressure to obtain an oily reaction product. This product was dissolved in ethyl acetate having a water content shown in Table 3 or water to prepare a solution having a concentration of about 13% by weight, and the solution was warmed to 30° C. and stirred for 6 hours. The amount produced of the diketopiperazine derivative (3) was analyzed with HPLC, and the relation between water content and the average increase in the diketopiperazine derivative (3) per hour was investigated. The molar ratio in Table 3 means mol number of water per 1 mol of N-(1(S)-ethoxycarbonyl-3-phenylpropyl)-L-alanyl-L-proline.

[3] = Formation of diketopiperazine derivative (3) from enalapril maleate in ethyl acetate containing 0.1% water or in H2O, 60° C., 6 hours, HPLC (Example 9); details: 16% by weight
Procedure: as §1
According to Example 1, N-(1(S)-ethoxycarbonyl-3-phenylpropyl)-L-alanyl-L-proline maleate was prepared. Thereto was added ethyl acetate containing 0.1% water or H2O to prepare a solution having a concentration of 16% by weight, and the solution was warmed to 60° C. and stirred for 6 hours. The amount produced of the diketopiperazine derivative (3) was analyzed with HPLC, and the relation between water content and the average increase in the diketopiperazine derivative (3) per hour was investigated.

[4] = Formation of diketopiperazine derivative (3) from the Example 10 oil in ethyl acetate of given water content, 10° C., 6 hours, HPLC (Example 10); details: about 12% by weight solution
Procedure: as §1
To 5.00 g (28.2 mmol) of 1,2,3,4-tetrahydroisoquinoline-3-carboxylic acid were added 20 ml of ethyl acetate and 10 ml of H2O and, then, the pH was adjusted to 10.5 with 30% by weight NaOH aqueous solution. The inner temperature was regulated to 20° C. and, then, 4.31 g (14.1 mmol) of a crystal of N-(1(S)-ethoxycarbonyl-3-phenylpropyl)-L-alanine.N-carboxyanhydride was slowly added over 5 hours with stirring. During the addition, the reaction mixture was maintained at a pH of 10.5±1.0 with adding dropwise 30% by weight NaOH aqueous solution, and simultaneously, the inner temperature was maintained at 20° C. and the agitating power was maintained at 1.3 kW/m^3. After completion of the addition, the stirring was continued for 2 hour under the same conditions. The mixture was cooled to 5° C., and the pH thereof was adjusted to 4.5±0.2 with 35% by weight HCl. Then, under the same conditions, the stirring was continued for 10 minutes to complete the decarboxylation. The deposited material was removed by filtration under reduced pressure, and the organic phase was separated at 5° C. and the water phase was further extracted once with 20 ml of ethyl acetate at 10° C. The resulting organic phases were mixed and then washed three times with H2O in an amount of 5% by volume of the organic phase at 5° C. The organic phase was concentrated under reduced pressure to obtain 6.43 g of an oil. The oil was dissolved in ethyl acetate having a water content shown in Table 5 to prepare a solution having a concentration of about 12% by weight, and the resulting solution was stirred for 6 hours at 10° C. The amount produced of the diketopiperazine derivative (3) was analyzed with HPLC, and the relation between water content and the average increase in the diketopiperazine derivative (3) per hour was investigated.

Partition ratio to organic phase ([1]; 5° C.): 26%
Partition ratio to organic phase ([1]; 10° C.): 35%
Partition ratio to organic phase ([1]; 20° C.): 57%
Partition ratio to organic phase ([1]; 25° C.): 72%
Partition ratio to organic phase ([1]; 30° C.): 88%
Partition ratio to organic phase ([1]; 40° C.): 94%
Average increase per hour of diketopiperazine derivative (3) ([2]; ethyl acetate, water content 0.1% by weight (molar ratio 0.1)): 2.85 % by weight/hr
Average increase per hour of diketopiperazine derivative (3) ([2]; ethyl acetate, water content 0.4% by weight (molar ratio 0.6)): 2.06 % by weight/hr
Average increase per hour of diketopiperazine derivative (3) ([2]; ethyl acetate, water content 1.1% by weight (molar ratio 1.6)): 1.32 % by weight/hr
Average increase per hour of diketopiperazine derivative (3) ([2]; ethyl acetate, water content 2.1% by weight (molar ratio 3.1)): 0.99 % by weight/hr
Average increase per hour of diketopiperazine derivative (3) ([2]; ethyl acetate, water content 3.8% by weight (molar ratio 6.1)): 0.48 % by weight/hr
Average increase per hour of diketopiperazine derivative (3) ([2]; ethyl acetate, water content 5.1% by weight (molar ratio 8.2)): 0.39 % by weight/hr
Average increase per hour of diketopiperazine derivative (3) ([2]; water, water content 100% by weight (molar ratio 160)): 0.02 % by weight/hr
SMILES: CCOC(=O)[C@H](CCc1ccccc1)N[C@@H](C)C(=O)N1CCC[C@H]1C(=O)O [N-(1(S)-ethoxycarbonyl-3-phenylpropyl)-L-alanyl-L-proline]

Average increase per hour of diketopiperazine derivative (3) ([3]; H2O): 0.06 % by weight/hr
Average increase per hour of diketopiperazine derivative (3) ([3]; ethyl acetate containing 0.1% water): 0.55 % by weight/hr
SMILES: CCOC(=O)[C@H](CCc1ccccc1)N[C@@H](C)C(=O)N1CCC[C@H]1C(=O)O.O=C(O)/C=C\C(=O)O [N-(1(S)-ethoxycarbonyl-3-phenylpropyl)-L-alanyl-L-proline maleate]

Average increase per hour of diketopiperazine derivative (3) ([4]; water content 0.1% by weight): 5.3 % by weight/hr
Average increase per hour of diketopiperazine derivative (3) ([4]; water content 1.0% by weight): 2.2 % by weight/hr
Average increase per hour of diketopiperazine derivative (3) ([4]; water content 2.1% by weight): 1.7 % by weight/hr
Average increase per hour of diketopiperazine derivative (3) ([4]; water content 3.8% by weight): 1.3 % by weight/hr
SMILES: CCOC(=O)[C@H](CCc1ccccc1)N[C@@H](C)C(=O)N1Cc2ccccc2C[C@H]1C(=O)O [Example 10]

Source: US6713628B2, “Process for preparing pharmacologically acceptable salt of N-(1(S)-ethoxycarbonyl-3-phenylpropyl)-L-alanyl-amino acid” (Kaneka Corporation, priority 1997, dated 2004)
